The subject of one assay is DU145 Cells. The assay is described as follows: Cytotoxicity on DU145 tumor cells, viable cells by Trypan blue exclusion. In kind it is cell-based, human. Particulars: DU145 prostate cell line, 96 h continuous treatment, five concentrations (1-100 μM range). The method, then:
The effect of compounds according to Formula I on the growth of human tumor cells in culture was evaluated using the androgen receptor negative prostate cell line DU145. All cell cultures were maintained at 37° C. in a humidified atmosphere of 5% CO2.
Cells were treated with compounds according to Formula I at five different concentrations (1-100 μM range) for each compound. The dose response of each cell line was established by determining the number of viable cells after 96 h of continuous treatment against each of the different test concentrations of each compound. The determination of viable cells was done by the by the Trypan blue exclusion method. An IC50 (μM) for each compound was determined.

The target of the next assay is T1, CDK1/CyclinB (Homo sapiens, UniProt P06493).
T1 construct: purchased Upstate USA, Charlottesville, Va
As to the kind of experiment: In vitro kinase assay CDK1/CyclinB, 32P incorporation into Histone H1. In kind it is biochemical. The settings on record: recombinant human enzyme complex, average of two independent experiments in triplicate.

In a further assay the target is CDK4/CyclinD1 (Homo sapiens, UniProt P11802). As to the kind of experiment: In vitro kinase assay CDK4/CyclinD1, 32P incorporation into GST-Rb.
The target of the next assay is T2, CDK9/CyclinT1 (Homo sapiens, UniProt P50750).
T2 construct: purchased Upstate USA, Charlottesville, Va
The assay is described as follows: In vitro kinase assay CDK9/CyclinT1, 32P incorporation into RNA Polymerase II carboxy terminal domain. In kind it is biochemical. Particulars: recombinant human enzyme complex, average of two independent experiments in triplicate.

Another assay deals with T3, CDK2/CylinE (Homo sapiens, UniProt P24941).
T3 construct: purchased Upstate USA, Charlottesville, Va
The assay is described as follows: In vitro kinase assay CDK2/CylinE, 32P incorporation into Histone H1. In kind it is biochemical. Particulars: recombinant human enzyme complex, average of two independent experiments in triplicate.

For 27 compounds, IC50 results are on record in patent publication US8067461B2, “3-acyl coumarins, thiochromones and quinolones and therapeutic uses thereof” (Temple University-Of The Commonwealth System of Higher …, priority 2005, dated 2011).

Like-named read-outs stand apart in the source and are kept apart here.

T1 sequence (P06493 whole entry): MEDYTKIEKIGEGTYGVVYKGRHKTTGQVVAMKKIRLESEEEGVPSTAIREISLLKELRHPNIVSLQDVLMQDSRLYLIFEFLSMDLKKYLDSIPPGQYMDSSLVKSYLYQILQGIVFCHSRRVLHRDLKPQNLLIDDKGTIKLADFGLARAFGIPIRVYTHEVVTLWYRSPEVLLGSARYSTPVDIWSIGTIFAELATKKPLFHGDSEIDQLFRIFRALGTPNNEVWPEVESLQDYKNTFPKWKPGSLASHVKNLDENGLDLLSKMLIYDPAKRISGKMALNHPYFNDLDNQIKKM
T1 sequence (P14635 whole entry partner): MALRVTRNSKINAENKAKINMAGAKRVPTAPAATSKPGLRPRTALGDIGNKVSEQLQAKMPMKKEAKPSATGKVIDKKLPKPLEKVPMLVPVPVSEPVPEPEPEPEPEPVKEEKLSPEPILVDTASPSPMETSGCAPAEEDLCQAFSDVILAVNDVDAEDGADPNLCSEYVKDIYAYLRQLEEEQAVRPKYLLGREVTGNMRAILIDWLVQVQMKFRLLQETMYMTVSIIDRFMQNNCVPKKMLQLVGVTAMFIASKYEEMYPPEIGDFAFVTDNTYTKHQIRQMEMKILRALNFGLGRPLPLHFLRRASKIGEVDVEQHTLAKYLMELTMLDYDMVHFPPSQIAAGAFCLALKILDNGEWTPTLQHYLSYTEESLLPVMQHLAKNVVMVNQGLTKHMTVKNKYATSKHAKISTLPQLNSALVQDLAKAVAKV
Sequence of CDK4/CyclinD1 (P11802 whole entry): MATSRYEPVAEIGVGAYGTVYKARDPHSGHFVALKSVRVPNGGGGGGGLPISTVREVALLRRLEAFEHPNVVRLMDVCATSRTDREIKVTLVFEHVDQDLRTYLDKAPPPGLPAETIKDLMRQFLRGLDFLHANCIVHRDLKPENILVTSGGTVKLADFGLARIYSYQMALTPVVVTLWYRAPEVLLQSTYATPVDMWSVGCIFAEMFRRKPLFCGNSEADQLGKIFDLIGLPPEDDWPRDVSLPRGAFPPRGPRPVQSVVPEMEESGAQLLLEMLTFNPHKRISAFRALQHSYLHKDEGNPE
Sequence of CDK4/CyclinD1 (P24385 whole entry partner): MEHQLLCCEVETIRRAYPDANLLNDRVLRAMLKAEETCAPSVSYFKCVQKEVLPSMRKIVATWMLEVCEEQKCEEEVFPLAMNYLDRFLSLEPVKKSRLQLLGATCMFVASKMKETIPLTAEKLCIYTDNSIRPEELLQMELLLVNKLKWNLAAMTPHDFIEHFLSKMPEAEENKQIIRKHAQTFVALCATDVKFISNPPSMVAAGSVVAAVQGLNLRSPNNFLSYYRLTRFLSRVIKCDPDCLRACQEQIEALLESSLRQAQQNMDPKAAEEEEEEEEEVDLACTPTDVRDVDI
T2 sequence (P50750 whole entry): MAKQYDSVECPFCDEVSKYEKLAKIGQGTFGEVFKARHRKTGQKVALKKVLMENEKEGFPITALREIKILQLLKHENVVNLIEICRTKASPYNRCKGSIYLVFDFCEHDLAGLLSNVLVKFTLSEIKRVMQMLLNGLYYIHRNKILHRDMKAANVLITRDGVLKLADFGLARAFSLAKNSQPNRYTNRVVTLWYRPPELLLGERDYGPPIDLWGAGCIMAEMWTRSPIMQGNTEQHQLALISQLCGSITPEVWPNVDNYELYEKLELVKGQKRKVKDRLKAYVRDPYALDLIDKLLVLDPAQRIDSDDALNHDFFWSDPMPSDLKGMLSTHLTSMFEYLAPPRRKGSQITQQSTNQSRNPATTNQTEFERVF
T2 sequence (O60563 whole entry partner): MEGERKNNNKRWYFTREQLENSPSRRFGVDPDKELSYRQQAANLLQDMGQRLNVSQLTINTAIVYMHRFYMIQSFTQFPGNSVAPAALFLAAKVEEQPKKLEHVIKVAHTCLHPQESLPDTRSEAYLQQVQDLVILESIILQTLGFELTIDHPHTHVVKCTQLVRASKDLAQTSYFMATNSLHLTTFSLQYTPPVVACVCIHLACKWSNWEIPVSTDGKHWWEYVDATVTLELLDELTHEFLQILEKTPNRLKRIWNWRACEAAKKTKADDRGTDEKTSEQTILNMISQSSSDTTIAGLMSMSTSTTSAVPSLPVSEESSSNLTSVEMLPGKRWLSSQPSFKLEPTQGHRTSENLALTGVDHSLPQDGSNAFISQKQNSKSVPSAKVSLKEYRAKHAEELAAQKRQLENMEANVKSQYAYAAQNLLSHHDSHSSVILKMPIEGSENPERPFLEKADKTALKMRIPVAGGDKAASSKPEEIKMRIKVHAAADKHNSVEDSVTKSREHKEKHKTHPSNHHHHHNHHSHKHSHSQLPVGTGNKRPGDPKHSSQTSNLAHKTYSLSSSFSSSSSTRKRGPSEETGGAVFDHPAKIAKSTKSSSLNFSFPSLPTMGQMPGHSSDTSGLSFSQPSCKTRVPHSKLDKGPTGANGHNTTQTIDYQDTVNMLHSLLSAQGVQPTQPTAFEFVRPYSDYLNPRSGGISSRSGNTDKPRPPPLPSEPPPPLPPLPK

On to `O=C(c1cc2cc(Br)ccc2oc1=O)c1cc2cc(Br)ccc2oc1=O` [Example 1, 6-bromo-3-[(6-bromo-2-oxo-chromen-3-yl)carbonyl]chromen-2-one], for which the half-inhibitory concentration (IC50) was above 100 µM in the assay on DU145 Cells (Homo sapiens, DU-145); above 10 µM on CDK1/CyclinB; above 10 µM on CDK4/CyclinD1.
In the case of `COc1ccc2cc(C(=O)c3cc4ccc(OC)cc4oc3=O)c(=O)oc2c1` [Example 2, 7-methoxy-3-[(7-methoxy-2-oxochromen-3-yl)carbonyl]chromen-2-one], the half-maximal inhibitory concentration (IC50) in the assay with DU145 Cells (Homo sapiens, DU-145) is above 100 µM; at CDK1/CyclinB, above 10 µM; at CDK4/CyclinD1 it was above 10 µM.
Take `COc1cc(OC)c2cc(C(=O)c3cc4c(OC)cc(OC)cc4oc3=O)c(=O)oc2c1` [Example 3, 5,7-dimethoxy-3-[(5,7-dimethoxy-2-oxochromen-3-yl)carbonyl]chromen-2-one]: the half-inhibitory concentration (IC50) in the assay on DU145 Cells (Homo sapiens, DU-145) is above 100 µM; at CDK1/CyclinB, above 10 µM; at CDK4/CyclinD1, above 10 µM.
For the compound `CCOc1cccc2cc(C(=O)c3cc4cccc(OCC)c4oc3=O)c(=O)oc12` [Example 4, 8-ethoxy-3-[(8-ethoxy-2-oxochromen-3-yl)carbonyl]chromen-2-one], the half-maximal inhibitory concentration (IC50) in the assay on DU145 Cells (Homo sapiens, DU-145) is above 100 µM; at CDK1/CyclinB, above 10 µM; against CDK4/CyclinD1, above 10 µM.
Take `O=C(c1cc2ccccc2oc1=O)c1cc2ccccc2oc1=O` [Example 5]: the half-inhibitory concentration (IC50) in the assay with DU145 Cells (Homo sapiens, DU-145) was above 100 µM; on CDK1/CyclinB it was above 10 µM; against CDK4/CyclinD1 it was above 10 µM.
In the case of `O=C(c1cc2cc(Cl)ccc2oc1=O)c1cc2cc(Cl)ccc2oc1=O` [Example 6, 6-chloro-3-[(6-chloro-2-oxochromen-3-yl)carbonyl]chromen-2-one], the IC50 in the assay with DU145 Cells (Homo sapiens, DU-145) is above 100 µM; at CDK1/CyclinB, 1 to 10 µM; at CDK4/CyclinD1, above 10 µM.
The like results for `O=C(c1cc2cc(F)ccc2oc1=O)c1cc2cc(F)ccc2oc1=O` [Example 7, 6-fluoro-3-[(6-fluoro-2-oxochromen-3-yl)carbonyl]chromen-2-one] were, in that order, above 100 µM, above 10 µM and above 10 µM.
In the case of `O=C(c1cc2cc(I)ccc2oc1=O)c1cc2cc(I)ccc2oc1=O` [Example 8, 6-iodo-3-[(6-iodo-2-oxochromen-3-yl)carbonyl]chromen-2-one], the concentration for half-maximal inhibition (IC50) in the assay with DU145 Cells (Homo sapiens, DU-145) is above 100 µM; on CDK1/CyclinB it was above 10 µM; on CDK4/CyclinD1, above 10 µM.
Take `O=C(c1cc2cc([N+](=O)[O-])ccc2oc1=O)c1cc2cc([N+](=O)[O-])ccc2oc1=O` [Example 9, 6-nitro-3-[(6-nitro-2-oxochromen-3-yl)carbonyl]chromen-2-one]: the half-inhibitory concentration (IC50) on CDK9/CyclinT1 was 0.5 µM; in the assay with DU145 Cells (Homo sapiens, DU-145), 1 to 10 µM; at CDK1/CyclinB it was above 10 µM; against CDK4/CyclinD1, above 10 µM; at CDK2/CylinE it was 1.54 µM.
With `COc1cc([N+](=O)[O-])cc2cc(C(=O)c3cc4cc([N+](=O)[O-])cc(OC)c4oc3=O)c(=O)oc12` [Example 10, 8-methoxy-3-[(8-methoxy-6-nitro-2-oxo-chromen-3-yl)carbonyl]-6-nitro-chromen-2-one], the IC50 was 0.5 µM at CDK9/CyclinT1; 10 to 25 µM in the assay with DU145 Cells (Homo sapiens, DU-145); above 10 µM at CDK1/CyclinB; above 10 µM against CDK4/CyclinD1; 0.549 µM at CDK2/CylinE.
With `O=C(c1cc2ccc(O)cc2oc1=O)c1cc2ccc(O)cc2oc1=O` [Example 11, 7-hydroxy-3-[(7-hydroxy-2-oxo-chromen-3-yl)carbonyl]chromen-2-one], the concentration for half-maximal inhibition (IC50) is above 100 µM with DU145 Cells (Homo sapiens, DU-145); above 10 µM on CDK1/CyclinB; above 10 µM against CDK4/CyclinD1.
Turning to `O=C(c1cc2cc(Cl)cc(Cl)c2oc1=O)c1cc2cc(Cl)cc(Cl)c2oc1=O` [Example 12, 6,8-dichloro-3-[(6,8-dichloro-2-oxochromen-3-yl)carbonyl]chromen-2-one], the half-maximal inhibitory concentration (IC50) with DU145 Cells (Homo sapiens, DU-145) is 10 to 25 µM; at CDK1/CyclinB, above 10 µM; against CDK4/CyclinD1 it was 2.5 to 5 µM.
On to `O=C(c1cc2cc(Br)cc(Br)c2oc1=O)c1cc2cc(Br)cc(Br)c2oc1=O` [Example 13, 6,8-dibromo-3-[(6,8-dibromo-2-oxochromen-3-yl)carbonyl]chromen-2-one], for which the IC50 was 0.5 µM at CDK9/CyclinT1; 10 to 25 µM with DU145 Cells (Homo sapiens, DU-145); 2.5 to 5 µM on CDK4/CyclinD1; 10 µM on CDK2/CylinE.
For `O=C(c1cc2cc(F)cc(F)c2oc1=O)c1cc2cc(F)cc(F)c2oc1=O` [Example 14, 6,8-difluoro-3-[(6,8-difluoro-2-oxochromen-3-yl)carbonyl]chromen-2-one], the IC50 with DU145 Cells (Homo sapiens, DU-145) was 10 to 25 µM; at CDK1/CyclinB it was above 10 µM; against CDK4/CyclinD1 it was above 10 µM.
Consider `COc1ccc(Br)c2cc(C(=O)c3cc4c(Br)ccc(OC)c4oc3=O)c(=O)oc12` [Example 15, 5-bromo-8-methoxy-3-[(5-bromo-8-methoxy-2-oxochromen-3-yl)-carbonyl]chromen-2-one], for which the concentration for half-maximal inhibition (IC50) in the assay on DU145 Cells (Homo sapiens, DU-145) is 25 to 50 µM; on CDK1/CyclinB, above 10 µM; against CDK4/CyclinD1, above 10 µM.
For `COc1cc(Br)cc2cc(C(=O)c3cc4cc(Br)cc(OC)c4oc3=O)c(=O)oc12` [Example 16, 6-bromo-8-methoxy-3-[(6-bromo-8-methoxy-2-oxochromen-3-yl)-carbonyl]chromen-2-one], the 50% inhibitory concentration (IC50) was 50 to 100 µM with DU145 Cells (Homo sapiens, DU-145); above 10 µM on CDK1/CyclinB; above 10 µM against CDK4/CyclinD1.
`O=C(c1cc2cccc(O)c2oc1=O)c1cc2cccc(O)c2oc1=O` [Example 17, 8-hydroxy-3-[(8-hydroxy-2-oxochromen-3-yl)carbonyl]chromen-2-one]: the IC50 in the assay with DU145 Cells (Homo sapiens, DU-145) was 25 to 50 µM; at CDK1/CyclinB it was above 10 µM; at CDK4/CyclinD1, above 10 µM.
For the compound `O=C(c1cc2cc(O)ccc2oc1=O)c1cc2cc(O)ccc2oc1=O` [Example 18, 6-hydroxy-3-[(6-hydroxy-2-oxochromen-3-yl)carbonyl]chromen-2-one], the concentration for half-maximal inhibition (IC50) in the assay with DU145 Cells (Homo sapiens, DU-145) was above 100 µM; at CDK1/CyclinB, above 10 µM; on CDK4/CyclinD1, above 10 µM.
Consider `O=C(c1cc2cc(Cl)cc(Br)c2oc1=O)c1cc2cc(Cl)cc(Br)c2oc1=O` [Example 19, 6-chloro-8-bromo-3-[(6-chloro-8-bromo-2-oxochromen-3-yl)carbonyl]-chromen-2-one], for which the half-maximal inhibitory concentration (IC50) on CDK9/CyclinT1 is 0.5 µM; in the assay on DU145 Cells (Homo sapiens, DU-145), 1 to 10 µM; on CDK1/CyclinB, 1 to 10 µM; at CDK4/CyclinD1, above 10 µM; on CDK2/CylinE, 0.089 µM.
`O=C(c1cc2cc3ccccc3cc2oc1=O)c1cc2cc3ccccc3cc2oc1=O` [Example 20, [(2-oxobenzo[g]chromen-3-yl)-carbonyl]benzo[g]chromen-2-one]: the IC50 in the assay on DU145 Cells is 25 to 50 µM; on CDK1/CyclinB it was above 10 µM; on CDK4/CyclinD1 (read-out: CDK4 IC50, recombinant human enzyme complex, average of two independent experiments in triplicate), above 10 µM.
In the case of `COc1cccc2oc(=O)c(C(=O)c3cc4c(OC)cccc4oc3=O)cc12` [Example 21, 5-methoxy-3-[(5-methoxy-2-oxochromen-3-yl)carbonyl]chromen-2-one], the half-inhibitory concentration (IC50) is 0.5 µM on CDK9/CyclinT1; 50 to 100 µM with DU145 Cells (Homo sapiens, DU-145); above 10 µM on CDK1/CyclinB; above 10 µM at CDK4/CyclinD1; 10 µM at CDK2/CylinE.
Turning to `Cc1ccc2oc(=O)c(C(=O)c3cc4cc(C)ccc4oc3=O)cc2c1` [Example 22, 6-methyl-3-[(6-methyl-2-oxochromen-3-yl)carbonyl]chromen-2-one], the IC50 at CDK1/CyclinB was 1 to 10 µM; against CDK4/CyclinD1 it was above 10 µM.
The like results for `O=C(c1cc2cc(OC(F)(F)F)ccc2oc1=O)c1cc2cc(OC(F)(F)F)ccc2oc1=O` [Example 23, 6-trifluoromethoxy-3-[(6-tri-fluoromethoxy-2-oxochromen-3-yl)-carbonyl]chromen-2-one] were, in that order, above 10 µM and above 10 µM.
Taken in the same sequence, the figures for `O=C(c1cc2cccc([N+](=O)[O-])c2oc1=O)c1cc2cccc([N+](=O)[O-])c2oc1=O` [Example 24, 8-nitro-3-[(8-nitro-2-oxo-chromen-3-yl)carbonyl]chromen-2-one] were above 10 µM and above 10 µM.
Taken in the same sequence, the figures for `O=C(c1cc2cccc(F)c2oc1=O)c1cc2cccc(F)c2oc1=O` [Example 26, 8-fluoro-3-[(8-fluoro-2-oxochromen-3-yl)carbonyl]chromen-2-one] were above 10 µM and above 10 µM.
In turn, `O=C(c1cc2cc([N+](=O)[O-])cc(Br)c2oc1=O)c1cc2cc([N+](=O)[O-])cc(Br)c2oc1=O` [Example 27, 6-nitro-8-bromo-3-[(6-nitro-8-bromo-2-oxocbromen-3-yl)carbonyl]-chromen-2-one] displayed an IC50 against CDK4/CyclinD1 above 10 µM.
Consider `O=C(c1cc2cc(I)cc(I)c2oc1=O)c1cc2cc(I)cc(I)c2oc1=O` [Example 29, 6,8-diiodo-3-[(6,8-diiodo-2-oxochromen-3-yl)carbonyl]chromen-2-one], for which the IC50 is 10 to 20 µM in the assay on DU145 Cells (Homo sapiens, DU-145) and 0.04 µM against CDK4/CyclinD1.

In general, IC50 refers to the midpoint of a concentration-inhibition curve.
